Laboratory results as given in patent US20230331690A1, “THC DERIVATIVES, ORAL DOSAGE FORMS COMPRISING SAME, USES THEREOF FOR TREATING DISEASES AND DISORDERS AND SYNTHESIS THEREOF” (BAR-ILAN UNIVERSITY, priority 2020, published 2023).
Where “and” joins values, the source holds several entries; their conditions need not be identical. Equal entries are not always repeated.

Tested on: hind paw of mice
Assay: Electronic Von-Frey mechanical sensitivity (withdrawal thresholds) after Paclitaxel-induced neuropathic pain
Format: in vivo
Conditions: for Withdrawal test, test 1 / Withdrawal test, test 4 / Withdrawal test, test 5 / Withdrawal test, test 6 / Withdrawal test, test 2 / Withdrawal test, test 3: per animal; for Withdrawal test, All group average: 8 mice; for Withdrawal test, Average: average per animal; for Withdrawal test, Change from b.l.: group average vs baseline; for Withdrawal test, test 6: additional test
Procedure: Mechanical sensitivity was evaluated by measuring the changes in tactile sensitivity in the hind paw of mice, using an Electronic Von-Frey apparatus (EVF). Withdrawal thresholds were measured, using the EVF apparatus, first at baseline (time=0) and then following drug, in a few periods after administration, by applying an accurate force on specific areas of the skin and measuring the needed force for the mouse to lift its paw.
Paclitaxel was utilized for the stimulation of a chemotherapy-induced neuropathic pain. Paclitaxel is anti-cancer chemotherapy drug classified as a “plant alkaloid” and an “antimicrotubule agent”.
Mice were divided into three groups of 8 mice each, as follows: • (a) Group no. 1—Morphine as positive control; • (b) Group no. […] 3—synthetic THC derivative 9-Desmethyl THC.
A portion of Paclitaxel was administered to each mouse by i.p. injection, on days 1, 3, 5 and 7 from the beginning of the experiment. At day 8, withdrawal thresholds were measured first at baseline (time=0), thereafter each mouse received a single portion of a drug substance, at 5 mg/Kg body weight concentration, by oral gavage and measurements took place.
The first checking point was 1 hour after administration of each drug. For every mouse, its threshold for the pain perception in which it removes its hind paw after the stabbing of the Von-Frey hair has been checked. Needed force (in gram force units) was measured each time and was recorded for every checking. This test was repeated 5 times for each mouse consecutively.
This procedure was repeated for all the three groups. The next checking point was 3 hours after administration, where the last withdrawal thresholds measurements were performed on the next morning, on day 9, which was 24 hours after administration.
Morphine was utilized as a positive control where group no. 1 mice received morphine (dissolved in a saline solution (0.9%) and injected subcutaneously) as an analgesic agent, prior to the mechanical sensitivity tests.
The tests described in this example are complicated and depend on numerous factors. Accordingly, results above 10.0 gram force (marked with an asterisk) were not included in the evaluation of the experimental data. In cases of exceptional results, an additional test was performed mouse (test 6) in order to assure the exceptional result.

[1] = t = 1 h after 5 mg/Kg, * values excluded
[2] = t = 3 h after 5 mg/Kg, * values excluded
[3] = t = 24 h after 5 mg/Kg, * values excluded

In the case of `CCCCCc1cc(O)c2c(c1)OC(C)(C)[C@@H]1CCC=C[C@@H]21` [9-Desmethyl THC, 9-desmethyl-THC], the “average decrease in the withdrawal thresholds” value (1 h after 5 mg/Kg, vs baseline) is reported as 10.2%, the “decrease compared to baseline in the withdrawal thresholds” value (3 h after 5 mg/Kg) is reported as 12.1% and the “Withdrawal test, test 1” value (t = 1 h after 5 mg/Kg single dose (oral gavage; morphine s.c.), * values >10.0 excluded from evaluation) is reported as 4.0 gram force (2×) and 7.2 gram force and 5.1 gram force and 4.3 gram force and 4.9 gram force and 7.3 gram force and 5.3 gram force. For the same compound, the “Withdrawal test, All group average” value (t = 1 h after 5 mg/Kg) was 5.55 gram force, the “Withdrawal test, Average” value (t = 1 h after 5 mg/Kg) was 4.82 gram force and 5.82 gram force and 5.84 gram force and 6.20 gram force and 5.12 gram force and 5.18 gram force and 5.98 gram force and 5.42 gram force and the “Withdrawal test, Change from b.l.” value (t = 1 h after 5 mg/Kg) was −10.2%. For the same compound, the “Withdrawal test, test 4” value (t = 1 h after 5 mg/Kg) was 5.3 gram force (2×) and 5.7 gram force and 4.0 gram force and 4.3 gram force (2×) and 5.4 gram force and 4.5 gram force, the “Withdrawal test, test 5” value (t = 1 h after 5 mg/Kg) was 4.3 gram force and 6.8 gram force (2×) and 4.4 gram force and 7.4 gram force and 4.6 gram force and 4.1 gram force and 5.6 gram force and the “Withdrawal test, test 6” value (t = 1 h after 5 mg/Kg) was 6.3 gram force and 5.3 gram force. For the same compound, the “Withdrawal test, test 2” value [1] was 6.1 gram force (2×) and 4.7 gram force and 9.8 gram force and 9.4 gram force and 6.7 gram force and 5.7 gram force and 4.0 gram force, the “Withdrawal test, test 3” value [1] was 4.4 gram force and 5.1 gram force and 4.2 gram force (2×) and 6.2 gram force and 5.7 gram force and 7.0 gram force and 7.7 gram force and the “Withdrawal test, All group average” value (t = 3 h after 5 mg/Kg) was 5.43 gram force. The “Withdrawal test, Average” value (t = 3 h after 5 mg/Kg) was 5.34 gram force and 5.02 gram force and 5.00 gram force and 5.62 gram force and 5.70 gram force (2×) and 5.22 gram force and 5.86 gram force, the “Withdrawal test, Change from b.l.” value (t = 3 h after 5 mg/Kg) was −12.1% and the “Withdrawal test, test 2” value (t = 3 h after 5 mg/Kg) was 5.1 gram force and 4.6 gram force and 4.8 gram force (2×) and 8.6 gram force (2×) and 4.7 gram force and 5.5 gram force. The “Withdrawal test, test 4” value (t = 3 h after 5 mg/Kg) was 4.1 gram force and 5.0 gram force and 5.4 gram force (2×) and 9.5 gram force and 4.9 gram force and 6.0 gram force and 4.2 gram force, the “Withdrawal test, test 5” value (t = 3 h after 5 mg/Kg) was 4.7 gram force (2×) and 6.3 gram force and 4.2 gram force and 4.3 gram force and 6.5 gram force and 6.8 gram force and 7.0 gram force and the “Withdrawal test, test 6” value (t = 3 h after 5 mg/Kg) was 4.4 gram force and 4.9 gram force (2×). For the same compound, the “Withdrawal test, test 1” value [2] was 7.4 gram force and 5.0 gram force and 4.8 gram force and 4.3 gram force and 4.5 gram force and 4.6 gram force and 7.0 gram force and 6.8 gram force, the “Withdrawal test, test 3” value [2] was 5.4 gram force and 4.2 gram force and 5.8 gram force and 5.2 gram force and 4.0 gram force (3×) and 4.6 gram force and the “Withdrawal test, All group average” value (t = 24 h after 5 mg/Kg) was 5.36 gram force. For the same compound, the “Withdrawal test, Average” value (t = 24 h after 5 mg/Kg) was 6.58 gram force and 4.80 gram force and 5.28 gram force and 6.12 gram force and 4.96 gram force and 4.74 gram force and 5.16 gram force and 5.26 gram force, the “Withdrawal test, Change from b.l.” value (t = 24 h after 5 mg/Kg) was −13.3% and the “Withdrawal test, test 1” value (t = 24 h after 5 mg/Kg) was 5.4 gram force and 5.0 gram force (2×) and 4.2 gram force (3×) and 7.0 gram force and 7.1 gram force. For the same compound, the “Withdrawal test, test 2” value (t = 24 h after 5 mg/Kg) was 6.9 gram force and 4.1 gram force (3×) and 4.7 gram force and 5.6 gram force and 4.4 gram force and 4.5 gram force, the “Withdrawal test, test 3” value (t = 24 h after 5 mg/Kg) was 8.8 gram force and 4.1 gram force (2×) and 4.7 gram force and 4.2 gram force and 4.0 gram force and 5.6 gram force and 6.1 gram force and the “Withdrawal test, test 4” value [3] was 4.4 gram force and 6.2 gram force and 8.1 gram force and 9.0 gram force and 5.0 gram force and 5.1 gram force and 7.6 gram force and 4.0 gram force. For the same compound, the “Withdrawal test, test 5” value [3] was 7.4 gram force and 4.6 gram force (2×) and *10.0 gram force and 5.8 gram force and 7.3 gram force and 4.0 gram force (2×).
